{"source": "patent US7323444B2", "about": "“Use of kahalalide compounds for the manufacture of a medicament for the treatment of psoriasis” (Pharma Mar, S.A.U., priority 2003, dated 2008)", "key": {"psoriasis": {"test_system": "psoriasis", "method": "This phase I Clinical and Pharmacokinetic study was designed to determine the safety of Kahalalide F administered as a weekly infusion over 1 hour in patients with solid tumours. This trial was addressed to any solid tumours and was designed as a classical escalation. The patient was a patient with a psoriasis history since more than 40 years."}, "[1]": {"conditions": "cited from earlier work"}, "solid tumour cell lines": {"test_system": "solid tumour cell lines", "conditions": "preclinical studies, in vitro; cited from earlier work"}}}
{"compound": "C/C=C1\\NC(=O)[C@H](Cc2ccccc2)NC(=O)[C@@H](C(C)C)NC(=O)[C@@H](C(C)CC)NC(=O)[C@H](NC(=O)[C@H](NC(=O)[C@H](CCCN)NC(=O)[C@H]2CCCN2C(=O)[C@H](NC(=O)[C@@H](NC(=O)C(NC(=O)[C@H](NC(=O)CCCC(C)C)C(C)C)[C@@H](C)O)C(C)C)C(C)C)C(C)CC)C(C)OC(=O)[C@H](C(C)C)NC1=O", "note": "(stereo partly shown) [kahalalide F]", "values": [{"measurement": "psoriasic symptoms after the first infusion", "setting": "psoriasis; one patient, severe psoriasis, 650 μg/m^2 weekly iv infusion over 1 hour, after first infusion", "result": "quick improvement of the psoriasic symptoms"}, {"measurement": "remission of the cutaneous plaques with the following infusions", "setting": "psoriasis; same patient, 650 μg/m^2 weekly, total of 7 infusions", "result": "nearly complete remission of the cutaneous plaques"}, {"measurement": "psoriasis status after end of treatment", "setting": "psoriasis; same patient, two months after the last dose", "result": "still in a nearly complete remission situation"}, {"measurement": "maximum tolerated dose (MTD)", "setting": "[1]; female mice, single bolus iv injection", "result": 0.28, "unit": "mg/kg"}, {"measurement": "acute toxicity on repeated administration", "setting": "[1]; mice, 280 μg/kg once daily times five", "result": "without any apparent evidence of acute toxicity"}, {"measurement": "toxicity of single doses just above the MTDiv", "setting": "[1]; mice, single iv doses just above MTD, signs of neurotoxicity followed by death", "result": "extremely toxic"}, {"measurement": "activity against solid tumour cell lines", "setting": "solid tumour cell lines", "result": "significant activity"}]}
